Laboratory results taken from patent US20220339144A1, “PYRIDINYL INDOLE COMPOUNDS AND METHODS OF USE THEREOF” (Chinook Therapeutics Canada, Inc., priority 2021, published 2022).

Assays:
AMPKα1β1γ1 = molecular target: T1, AMPKα1β1γ1 (Homo sapiens, UniProt Q13131+Q9Y478); experiment: AMPKα1β1γ1 biochemical assay (LabChip EZ Reader mobility shift); details: EC50 of Table 1; activation, normalized to DMSO vehicle control; read-out: Human AMPK AMPKα1β1γ1 EC50
T1 construct: purchased Carna Biosciences 02-113
T1 sequence (Q13131 whole entry): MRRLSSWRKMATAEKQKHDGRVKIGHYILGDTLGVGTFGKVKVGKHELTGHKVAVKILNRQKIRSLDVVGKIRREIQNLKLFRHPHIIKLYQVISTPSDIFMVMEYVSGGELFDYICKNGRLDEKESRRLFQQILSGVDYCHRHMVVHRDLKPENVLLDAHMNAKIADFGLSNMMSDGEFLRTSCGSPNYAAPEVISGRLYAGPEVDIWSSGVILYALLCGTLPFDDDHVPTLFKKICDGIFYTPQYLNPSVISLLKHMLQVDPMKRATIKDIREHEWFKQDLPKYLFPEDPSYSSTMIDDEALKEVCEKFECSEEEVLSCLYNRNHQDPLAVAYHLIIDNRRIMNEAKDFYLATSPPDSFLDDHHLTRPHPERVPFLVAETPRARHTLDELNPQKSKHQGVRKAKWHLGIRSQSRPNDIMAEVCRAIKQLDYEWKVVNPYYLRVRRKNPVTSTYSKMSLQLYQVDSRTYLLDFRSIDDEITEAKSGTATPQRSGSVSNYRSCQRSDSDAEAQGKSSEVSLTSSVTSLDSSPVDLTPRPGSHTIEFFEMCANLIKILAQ
T1 sequence (Q9Y478 whole entry): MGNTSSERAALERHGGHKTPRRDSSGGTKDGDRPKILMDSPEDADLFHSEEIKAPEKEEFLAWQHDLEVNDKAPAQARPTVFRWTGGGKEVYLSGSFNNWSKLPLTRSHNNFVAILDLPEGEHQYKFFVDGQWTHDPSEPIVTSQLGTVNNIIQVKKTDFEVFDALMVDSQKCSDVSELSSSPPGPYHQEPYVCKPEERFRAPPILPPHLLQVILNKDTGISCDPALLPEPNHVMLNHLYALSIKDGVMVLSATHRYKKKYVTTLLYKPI
T1 sequence (P54619 whole entry partner): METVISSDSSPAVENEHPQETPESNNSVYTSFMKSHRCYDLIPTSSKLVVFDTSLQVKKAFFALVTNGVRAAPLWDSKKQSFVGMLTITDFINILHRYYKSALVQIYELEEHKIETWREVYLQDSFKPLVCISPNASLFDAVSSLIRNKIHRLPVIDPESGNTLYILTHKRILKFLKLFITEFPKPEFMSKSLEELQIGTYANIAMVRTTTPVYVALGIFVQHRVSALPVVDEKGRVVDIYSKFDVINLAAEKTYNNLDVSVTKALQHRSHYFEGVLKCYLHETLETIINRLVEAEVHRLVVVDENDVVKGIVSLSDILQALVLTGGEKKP
Description: (§1) Compounds disclosed herein were evaluated for their ability to activate AMPKα1β1γ1 by measuring phosphorylation of a commercially available fluorescent AMPK substrate using the LabChip® EZ Reader microfluidic system that is based on a mobility shift principle in which unphosphorylated fluorescent substrates may be separated and distinguished from phosphorylated fluorescent substrates due to the difference in negative charge. Briefly, compounds were serial diluted 3-fold in 100% DMSO for an 11-point dose-response curve. A 20 nL aliquot of diluted compound was transferred into a 384-well plate using a liquid handler (Labcyte Inc., Echo 550). A pre-prepared solution (10 mM MgCl2, 0.01% Brij-35, 2 mM DTT, 0.05% BSA, 1 mM EGTA, and 50 mM HEPES pH 7.5) was combined with 0.83 nM AMPKα1β1γ1 (Carna Biosciences, 02-113). The enzyme solution (15 μL) was aliquoted into each well and the plate was incubated at 24° C. for 30 min. A second stock solution (10 mM MgCl2, 0.01% Brij-35, 2 mM DTT, 0.05% BSA, 1 mM EGTA, 800 μM ATP, and 50 mM HEPES pH 7.5) was combined with 6 μM fluorescent peptide substrate for AMPKal (Perkin Elmer, 760351). The kinase reaction was initiated by adding 5 μL of the second solution containing substrate and ATP to each well. The plate was incubated at 24° C. for 90 minutes and 75 μL of 0.5 M EDTA was added to terminate the reaction. The plates were analyzed using a LabChip® EZ Reader (Perkin Elmer, 122919) and the effective concentration to achieve 50% of the maximal activity (EC50) was calculated after normalizing to the DMSO vehicle control.

AMPKα1β2γ1 = molecular target: T2, AMPKα1β2γ1 (Homo sapiens, UniProt O43741+Q13131); experiment: AMPKα1β2γ1 biochemical assay (LabChip EZ Reader mobility shift); details: second EC50 column of Table 1 (head repeats α1β1γ1; text says α1β2γ1 isoform); read-out: Human AMPK AMPKα1β1γ1 EC50
T2 construct: purchased Carna Biosciences (printed only as 'Biosciences') 02-147
T2 sequence (Q13131 whole entry, canonical isoform): as the sequence (Q13131 whole entry) above
T2 sequence (O43741 whole entry, canonical isoform): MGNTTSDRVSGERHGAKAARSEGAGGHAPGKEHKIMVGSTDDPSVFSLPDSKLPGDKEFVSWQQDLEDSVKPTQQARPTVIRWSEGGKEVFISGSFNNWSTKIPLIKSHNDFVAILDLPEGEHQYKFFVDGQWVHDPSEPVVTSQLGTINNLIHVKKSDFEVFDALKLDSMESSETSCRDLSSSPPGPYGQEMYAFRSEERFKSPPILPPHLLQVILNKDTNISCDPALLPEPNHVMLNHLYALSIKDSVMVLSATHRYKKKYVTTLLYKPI
T2 sequence (P54619 whole entry partner, canonical isoform): as the sequence (P54619 whole entry partner) above
Description: as §1
The same procedure above was also used to measure activation of the AMPKα1β2γ1 isoform, replacing AMPKα1β1γ1 with AMPKα1β2γ1 Biosciences 02-147).

Row | Compound | EC50 (AMPKα1β1γ1) | EC50 (AMPKα1β2γ1)
1 | COc1nc(N2CC3CC2CO3)ccc1-c1cc2c(C(=O)O)c[nH]c2cc1Cl (racemic) [Example 2, rac-5-(6-(2-oxa-5-azabicyclo[2.2.1]heptan-5-yl)-2-methoxypyridin-3-yl)-6-chloro-1H-indole-3-carboxylic acid] | 0.1 to 0.25 µM | 
2 | COc1nc(N2CC3CC3(C#N)C2)ccc1-c1cc2c(C(=O)O)c[nH]c2cc1Cl (racemic) [Example 15, racemic-6-chloro-5-(6-(1-cyano-3-azabicyclo[3.1.0]hexan-3-yl)-2-methoxypyridin-3-yl)-1H-indole-3-carboxylic acid] | 0.05 to 0.1 µM | > 10 µM
3 | COc1nc(N2CC3COC(C3)C2)ccc1-c1cc2c(C(=O)O)c[nH]c2cc1Cl (racemic) [Example 20, racemic-5-(6-(6-oxa-3-azabicyclo[3.2.1]octan-3-yl)-2-methoxypyridin-3-yl)-6-chloro-1H-indole-3-carboxylic acid] | 0.05 to 0.1 µM | 
4 | COc1nc(N2CC3(CCC3O)C2)ccc1-c1cc2c(C(=O)O)c[nH]c2cc1Cl (racemic) [Example 25, racemic-6-chloro-5-(6-(5-hydroxy-2-azaspiro[3.3]heptan-2-yl)-2-methoxypyridin-3-yl)-1H-indole-3-carboxylic acid] | 0.05 to 0.1 µM | > 10 µM
5 | COc1nc(N2CC3CC3(O)C2)ccc1-c1cc2c(C(=O)O)c[nH]c2cc1Cl (racemic) [Example 26, racemic-6-chloro-5-(6-(1-hydroxy-3-azabicyclo[3.1.0]hexan-3-yl)-2-methoxypyridin-3-yl)-1H-indole-3-carboxylic acid] | ≤ 0.05 µM | > 10 µM
6 | COc1nc(N2C[C@H]3CCO[C@H]3C2)ccc1-c1cc2c(C(=O)O)c[nH]c2cc1Cl (racemic) [Example 28, racemic-6-chloro-5-(6-((cis)-hexahydro-5H-furo[2,3-c]pyrrol-5-yl)-2-methoxypyridin-3-yl)-1H-indole-3-carboxylic acid] | ≤ 0.05 µM | > 10 µM
7 | COc1nc(N2CC3CCC(C2)O3)ccc1-c1cc2c(C(=O)O)c[nH]c2cc1Cl (racemic) [Example 29, racemic-5-(6-(8-oxa-3-azabicyclo[3.2.1]octan-3-yl)-2-methoxypyridin-3-yl)-6-chloro-1H-indole-3-carboxylic acid] | 0.1 to 0.25 µM | 
8 | COc1nc(N2CC3(COC3)C2)ccc1-c1cc2c(C(=O)O)c[nH]c2cc1Cl [Example 1, 6-chloro-5-(2-methoxy-6-(2-oxa-6-azaspiro[3.3]heptan-6-yl)pyridin-3-yl)-1H-indole-3-carboxylic Acid] | ≤ 0.05 µM | > 10 µM
9 | COc1nc(N2C[C@@H]3[C@@H](CO)[C@@H]3C2)ccc1-c1cc2c(C(=O)O)c[nH]c2cc1Cl [Example 3, 6-chloro-5-(6-((trans)-6-(hydroxymethyl)-3-azabicyclo [3.1.0]hexan-3-yl)-2-methoxypyridin-3-yl)-1H-indole-3-carboxylic acid] | ≤ 0.05 µM | 0.25 to 10 µM
10 | COc1nc(N2CC3(CC(O)C3)C2)ccc1-c1cc2c(C(=O)O)c[nH]c2cc1Cl [Example 4, 6-chloro-5-(6-(6-hydroxy-2-azaspiro[3.3]heptan-2-yl)-2-methoxypyridin-3-yl)-1H-indole-3-carboxylic acid] | ≤ 0.05 µM | > 10 µM
11 | COc1nc(N2CCC3(COC3)C2)ccc1-c1cc2c(C(=O)O)c[nH]c2cc1Cl [Example 5, 6-chloro-5-(2-methoxy-6-(2-oxa-6-azaspiro[3.4]octan-6-yl)pyridin-3-yl)-1H-indole-3-carboxylic acid] | ≤ 0.05 µM | > 10 µM
12 | COc1nc(N2CC3(CN(C(=O)OC(C)(C)C)C3)C2)ccc1-c1cc2c(C(=O)O)c[nH]c2cc1Cl [Example 6, 5-(6-(6-(tert-butoxycarbonyl)-2,6-diazaspiro[3.3]heptan-2-yl)-2-methoxypyridin-3-yl)-6-chloro-1H-indole-3-carboxylic acid] | 0.05 to 0.1 µM | > 10 µM
13 | COc1nc(N2CC3(CC(NC(=O)OC(C)(C)C)C3)C2)ccc1-c1cc2c(C(=O)O)c[nH]c2cc1Cl [Example 7, 5-(6-(6-((tert-butoxycarbonyl)amino)-2-azaspiro[3.3]heptan-2-yl)-2-methoxypyridin-3-yl)-6-chloro-1H-indole-3-carboxylic acid] | ≤ 0.05 µM | 
14 | COc1nc(N2CC3(CCCO3)C2)ccc1-c1cc2c(C(=O)O)c[nH]c2cc1Cl [Example 8, 6-chloro-5-(2-methoxy-6-(5-oxa-2-azaspiro[3.4]octan-2-yl)pyridin-3-yl)-1H-indole-3-carboxylic acid] | ≤ 0.05 µM | > 10 µM
15 | COC[C@@H]1[C@H]2CN(c3ccc(-c4cc5c(C(=O)O)c[nH]c5cc4Cl)c(OC)n3)C[C@@H]12 [Example 9, 6-chloro-5-(2-methoxy-6-((trans)-6-(methoxymethyl)-3-azabicyclo[3.1.0]hexan-3-yl)pyridin-3-yl)-1H-indole-3-carboxylic acid] | ≤ 0.05 µM | > 10 µM
16 | COc1nc(N2CC3(CC(N)C3)C2)ccc1-c1cc2c(C(=O)O)c[nH]c2cc1Cl [Example 10, 5-(6-(6-amino-2-azaspiro[3.3]heptan-2-yl)-2-methoxypyridin-3-yl)-6-chloro-1H-indole-3-carboxylic Acid] | ≤ 0.05 µM | > 10 µM
17 | COc1nc(N2CC3(CNC3)C2)ccc1-c1cc2c(C(=O)O)c[nH]c2cc1Cl [Example 11, 6-chloro-5-(2-methoxy-6-(2,6-diazaspiro[3.3]heptan-2-yl)pyridin-3-yl)-1H-indole-3-carboxylic acid] | 0.05 to 0.1 µM | 
18 | COc1nc(N2C[C@H]3C[C@H]3C2)ccc1-c1cc2c(C(=O)O)c[nH]c2cc1Cl [Example 14, 5-(6-(3-azabicyclo[3.1.0]hexan-3-yl)-2-methoxypyridin-3-yl)-6-chloro-1H-indole-3-carboxylic acid] | 0.05 to 0.1 µM | 
19 | COc1nc(N2CC3(CCS3(=O)=O)C2)ccc1-c1cc2c(C(=O)O)c[nH]c2cc1Cl [Example 16, 6-chloro-5-(6-(1,1-dioxido-1-thia-6-azaspiro[3.3]heptan-6-yl)-2-methoxypyridin-3-yl)-1H-indole-3-carboxylic acid] | ≤ 0.05 µM | 

The remaining lines, values ahead:

Row | EC50 (AMPKα1β1γ1) | EC50 (AMPKα1β2γ1) | Compound
20 | 0.1 to 0.25 µM |  | COc1nc(N2CC3CCC2CO3)ccc1-c1cc2c(C(=O)O)c[nH]c2cc1Cl (racemic) [Example 30, racemic-5-(6-(2-oxa-5-azabicyclo[2.2.2]octan-5-yl)-2-methoxypyridin-3-yl)-6-chloro-1H-indole-3-carboxylic acid]
21 | 0.05 to 0.1 µM |  | COc1nc(N2CCC3(CCO3)CC2)ccc1-c1cc2c(C(=O)O)c[nH]c2cc1Cl (racemic) [Example 31, racemic-6-chloro-5-(2-methoxy-6-(1-oxa-7-azaspiro [3.5]nonan-7-yl)pyridin-3-yl)-1H-indole-3-carboxylic acid]
22 | ≤ 0.05 µM |  | COc1nc(N2C[C@@H]3COC[C@H]3C2)ccc1-c1cc2c(C(=O)O)c[nH]c2cc1Cl (racemic) [Example 32, racemic-6-chloro-5-(2-methoxy-6-((trans)tetrahydro-1H-furo[3,4-c]pyrrol-5(3H)-yl)pyridin-3-yl)-1H-indole-3-carboxylic acid]
23 | 0.1 to 0.25 µM |  | COc1nc(N2CCC3(CCOC3)C2)ccc1-c1cc2c(C(=O)O)c[nH]c2cc1Cl (racemic) [Example 37, racemic-6-chloro-5-(2-methoxy-6-(2-oxa-7-azaspiro [4.4]nonan-7-yl)pyridin-3-yl)-1H-indole-3-carboxylic acid]
24 | 0.1 to 0.25 µM |  | COc1nc(N2CCC3(CCOCC3)C2)ccc1-c1cc2c(C(=O)O)c[nH]c2cc1Cl [Example 35, 6-chloro-5-(2-methoxy-6-[8-oxa-2-azaspiro[4.5]decan-2-yl]pyridin-3-yl)-1H-indole-3-carboxylic acid]
25 | 0.1 to 0.25 µM |  | COc1nc(N2CC3(CCOCC3)C2)ccc1-c1cc2c(C(=O)O)c[nH]c2cc1Cl [Example 36, 6-chloro-5-(2-methoxy-6-(7-oxa-2-azaspiro[3.5]nonan-2-yl)pyridin-3-yl)-1H-indole-3-carboxylic acid]
26 | ≤ 0.05 µM |  | COc1nc(N2CC3CC(C2)O3)ccc1-c1cc2c(C(=O)O)c[nH]c2cc1Cl [Example 39, 5-(6-(6-oxa-3-azabicyclo[3.1.1]heptan-3-yl)-2-methoxypyridin-3-yl)-6-chloro-1H-indole-3-carboxylic acid]
27 | 0.1 to 0.25 µM |  | COc1nc(N2CC3(COC3)C2)ccc1-c1cc2c(C(=O)O)c[nH]c2cc1F [Example 40, 6-fluoro-5-(2-methoxy-6-[2-oxa-6-azaspiro[3.3]hentan-6-yl]pyridin-3-yl)-1H-indole-3-carboxylic Acid]
